This note sets out measurements from patent US12721832B2, “Anti-senescence plant polyphenol drug downregulating senescence-related secretory phenotype and use thereof” (BYHEALTH CO., LTD., priority 2021, dated 2026).

The subject of data set [1] is senescent PSC27 cells. Put plainly: RNA-seq / GSEA expression profile of BLEO-induced senescent PSC27 cells. Format: cell-based, human. Here is the method:
Whole-transcriptome sequencing was performed on the primary human prostate stromal cell line PSC27 under different treatment conditions. Total RNA samples were obtained from stromal cells. Their integrity was verified by Bioanalyzer 2100 (Agilent), RNA was sequenced by Illumina HiSeq X10, and gene expression levels were quantified by software package rsem (https://deweylab.github.io/rsem/). Briefly, rRNA was depleted from RNA samples with the RiboMinus Eukaryote Kit (Qiagen, Valencia, Calif., USA); and according to the manufacturer's instructions, TruSeq Stranded Total RNA Preparation Kits (Illumina, San Diego, Calif.), USA) was used to construct a strand-specific RNA-seq library before deep sequencing.
Paired-end transcriptomic reads were mapped to a reference genome (GRCh38/hg38), and reference-annotation was performed from Gencode v27 using the Bowtie tool. Duplicate reads were identified using the picard Tools (1.98) script to mark duplicates (https://github.com/broadinstitute/picard), and only non-duplicate reads were retained. Reference splice junctions were provided by reference transcriptome (Ensembl Build 73). FPKM values were calculated with Cufflinks, and Cufflinks maximum likelihood estimation function was used to call differential gene expression. Genes with significant changes in expression were defined by false discovery rate (FDR)-corrected P-values<0.05, and only Ensembl Genes 73 with status “Known” and biotype “coding” were used for downstream analysis.
Next, Trim Galore (v0.3.0) (http://www.bioinformatics.babraham.ac.uk/projects/trim_galore/) was used to trim the reads, while the quality assessment was carried out by using FastQC (v0.10.0) (http://www.bioinformatics.bb src.ac.uk/projects/fastqc/). Subsequently, a preliminary analysis of the raw data was perform on a free online platform, Majorbio I-Sanger Cloud Platform (www.i-sanger.com), by using DAVID bioinformatics platform (https://david.ncifcrf.gov/) and Ingenuity Pathways Analysis (IPA) program (http://www.ingenuity.com/index.html), the raw data were deposited in the NCBI Gene Expression Omnibus (GEO) database with access code GSE156448.
Based on the data obtained from the preliminary analysis of RNA-seq, analyzed and compared each differentially expressed significant gene, the genes were sorted using the “wald statistics” obtained from DESeq2, GSEA was performed on the sorting lists of all planning gene sets available in MSigDB (http://software.broadinstitute.org/gsea/msigdb). DESeq2 independent filtering was based on the average of normalized read counts to select genes with very low expression levels. The GSEA signature of SASP was as described in our previous publication (Zhang et al., 2018a).

Data set [2] deals with aged C57BL/6 mice. Put plainly: Post-mortem pathological examination of aged mice. Format: in vivo. The note with it: end of life. On the procedure:
The researchers checked the cages daily and removed dead mice from the cages. Within 24 hours of animal death, cadavers (abdominal cavity, thoracic cavity, and skull) were opened and kept separately in 10% formalin for at least 7 days. Decomposed or destroyed bodies were excluded. The preserved cadavers were transported to the dedicated autopsy site for pathological examination. Tumor burden (sum of different types of tumors per mouse), disease burden (sum of different histopathological changes in major organs per mouse), severity of each lesion and inflammation (lymphocyte infiltration) were assessed.

[3] abbreviates: BLEO/PCC1 vs BLEO group, fold change 2.0, P<0.01.

Turning to `Oc1cc(O)c2c(c1)O[C@H](c1ccc(O)c(O)c1)[C@H](O)[C@H]2c1c(O)cc(O)c2c1O[C@H](c1ccc(O)c(O)c1)[C@H](O)[C@H]2c1c(O)cc(O)c2c1O[C@H](c1ccc(O)c(O)c1)[C@H](O)C2` [PCC1, procyanidin C1], in data set [1] (setting [3]), the “number of genes significantly down-regulated” value is 4406 genes and the “number of genes up-regulated” value amounted to 2766 genes. Also, the “expression of SASP factors in senescent cells after treatment” value in data set [1] (RNA-seq heatmap) is listed as “generally decreased”. For the same compound, the “GSEA molecular signatures of SASP expression or NF-κB activation” value in data set [1] (senescent cells after PCC1) is “significant repression”. The “prevalence of several age-related diseases and tumor burden at autopsy vs vehicle” value in data set [2] was “did not show statistical differences”.
